The values that follow come from patent publication US11472814B2, “Thienopyranones and furanopyranones as checkpoint inhibitors and modulators of anti-tumor immunity” (SignalRx Pharmaceuticals, Inc., priority 2017, dated 2022).

One may read the IC50 as the point on the concentration scale where inhibition reaches its midpoint.

Counter-ions that a name gives are not always drawn. Like-named read-outs stand apart in the source and are kept apart here. Bounds are passed on as bounds.

Assay [1] has as its system Bone marrow derived macrophages (BMDMs), M2 gene expression. Put plainly: M2 marker mRNA in IL4 stimulated bone marrow derived macrophages (RT PCR). It is filed as cell-based, murine. The note with it: control = 1; for Arg mRNA expression relative to control / Fizz1 mRNA expression relative to control / Mgl mRNA expression relative to control / Mmr mRNA expression relative to control / Ym1 mRNA expression relative to control: IL4 stimulated BMDMs, 24 hours, normalized to GAPDH; for Arg relative mRNA expression (M2 gene) / Il10 relative mRNA expression (M2 gene) / Mmr relative mRNA expression (M2 gene) / Tgfb relative mRNA expression (M2 gene) / Vegf relative mRNA expression (M2 gene): Table 7, IL4 polarized murine BMDMs. The method, then:
Bone marrow derived macrophages (MOs) (BMDMs) were exposed to IL4 or LPS for 24 hours to stimulate the M2 or M1 macrophage transition in presence of Compound 1 and the known SYK inhibitor Bay-61-3606 at 1 μM conc. M2 markers Mmr, Ym1, Fizz1 and Mgl mRNA and M1 markers I11, 116 and Tnfa mRNA was quantitated by RT PCR. Values are mean±SEM (n=3-4). Expression of gene of interest is normalized to GAPDH. […] The data provide direct evidence that Compound 1 can block the immunosuppressive macrophage M2 gene expression and activate the M1 gene expression and therefore activate antitumor innate immune cell differentiation in vitro.
(§1) Relative mRNA expression of IL4 or LPS polarized genes in murine bone marrow derived macrophages (BMDMs) treated with various concentrations of inhibitors in vitro. Conclusion: Compound 3 suppressed in vitro macrophage specific immunosuppressive M2 gene expression markers and augmented macrophage stimulatory immune response M1 genes respectively.

Assay [2] deals with Bone marrow derived macrophages (BMDMs), M1 gene expression. Briefly: M1 marker mRNA in LPS stimulated bone marrow derived macrophages (RT PCR). It is filed as cell-based, murine. To be noted: control = 1; for Il1 mRNA expression relative to control / Il6 mRNA expression relative to control / Tnfa mRNA expression relative to control: LPS stimulated BMDMs, 24 hours, normalized to GAPDH; for Ifng relative mRNA expression (M1 gene) / Il1 relative mRNA expression (M1 gene) / Il6 relative mRNA expression (M1 gene) / Nos2 relative mRNA expression (M1 gene) / Tnfa relative mRNA expression (M1 gene): Table 8, LPS polarized murine BMDMs.
Description: […] M2 markers Mmr, Ym1, Fizz1 and Mgl mRNA and M1 markers I11, 116 and Tnfa mRNA was quantitated by RT PCR. Values are mean±SEM (n=3-4). Expression of gene of interest is normalized to GAPDH. […] The data provide direct evidence that Compound 1 can block the immunosuppressive macrophage M2 gene expression and activate the M1 gene expression and therefore activate antitumor innate immune cell differentiation in vitro.
as §1

In another assay the target is T1, SYK (Homo sapiens, UniProt P43405).
T1 construct: purchased Reaction Biology Corp., Malvern, Pa; (contract assay service)
Briefly: SYK inhibition IC50 (Reaction Biology Corp.). It is filed as biochemical. From the text: (§2) The inhibitory activity of a compound of the invention against PI3K and/or BRD4 and/or SYK and/or CDK4/6 can be readily determined using methods known to the skilled artisan, or by commercial vendors offering such services. […] In vivo, PI3K inhibition can be determined from target tissue biopsies by standard tissue processing to disrupt cells and then performing Western Blot analysis to determine the presence or absence of pAKT (substrate of PI3K) relative to a control sample. The activity of a compound of the invention as an inhibitor of a bromodomain-containing protein, such as a BET protein, such as BRD2, BRD3, BRD4, and/or BRDT, or an isoform or mutant thereof, may be determined in vitro, in vivo, or in a cell line. In vitro assays include assays that determine inhibition of bromodomain-containing proteins. Alternatively, inhibitor binding may be determined by running a competition experiment where a provided compound is incubated with a bromodomain-containing protein, such as a BET protein bound to known ligands, labeled or unlabeled. For example, bromodomain inhibition can be determined in vitro using Alpha Screen Technology (http://www.reactionbiologv.com/webapps/site/NewsPDFs/Bromodomain%20Assay %20Platform %20for %20Drug %20Screening %20and %20Discovery.pdf). In vivo bromodomain inhibition can be determined indirectly by evaluating the amount of protein present of proteins whose genes' transcription is influenced or controlled by the bromodomain protein, for example, the MYCN protein transcription is controlled by BRD4 (J. E. Delmore et al., Cell 2011, 146, 904-917; A. Puissant, Cancer Discov. 2013, 3, 308-323). Bromodomain inhibition may also be predicted by in silico modeling as described below in the Examples. Additionally, the company Promega offers a SYK luminescent assay to determine a compound's ability to inhibit the SYK protein (https://www.promega.com/-/media/files/resources/protocols/kinase-enzyme-appnotes/syk-kinase-assay-protocol.pdf?la=en).
Compounds of the invention were characterized for their ability to inhibit target proteins using third party vendors offering such services. PI3K alpha, gamma, and delta inhibition activity was determined by Thermo Fisher Scientific-Biosciences Life Sciences Solutions, Madison, Wis. The bromodomain protein inhibition (binding domain 1 and 2 of BRD4) as well as SYK inhibition was determined at Reaction Biology Corp., Malvern, Pa. Additional information on each of the assays performed and services provided is available at each company's website on the internet (https://www.thermofisher.com/us/en/home/life-science.html and http://www.reactionbiology.com/webapps/site, respectively). The IC50 data (shown below in Table 5) was calculated from a 10-point curve and is expressed in nanomolar concentration (nM) rounded off to the nearest whole number. Where multiple values were obtained the range from lowest to highest values is presented. NI=no inhibition detected up to 50 uM or IC50 not reached at 50 uM.

A further assay addresses T2, PI3K α (Homo sapiens, UniProt P42336).
T2 construct: purchased Thermo Fisher Scientific-Biosciences Life Sciences Solutions, Madison, Wis; (contract assay service)
Put plainly: PI3K alpha inhibition IC50 (Thermo Fisher). It is filed as biochemical. To be noted: 10-point curve.
Description: as §2
(§3) Compounds of the invention were characterized for their ability to inhibit target proteins using third party vendors offering such services. PI3K alpha, gamma, and delta inhibition activity was determined by Thermo Fisher Scientific-Biosciences Life Sciences Solutions, Madison, Wis. The bromodomain protein inhibition (binding domain 1 and 2 of BRD4) as well as SYK inhibition was determined at Reaction Biology Corp., Malvern, Pa. […] The IC50 data (shown below in Table 5) was calculated from a 10-point curve and is expressed in nanomolar concentration (nM) rounded off to the nearest whole number. […]

The next assay addresses T3, BRD4-1 (Homo sapiens, UniProt O60885).
T3 construct: purchased Reaction Biology Corp., Malvern, Pa; (contract assay service)
Briefly: Bromodomain protein inhibition IC50, binding domain 1 of BRD4 (Reaction Biology Corp.). The note with it: 10-point curve.
Description: as §2, §3

Another assay deals with T4, BRD4-2 (Homo sapiens, UniProt O60885).
T4 construct: purchased Reaction Biology Corp., Malvern, Pa; (contract assay service)
Briefly: Bromodomain protein inhibition IC50, binding domain 2 of BRD4 (Reaction Biology Corp.). The note with it: 10-point curve.
Description: as §2, §3

For a further assay, the target named is T5, PI3K γ (Homo sapiens, UniProt P48736).
T5 construct: purchased Thermo Fisher Scientific-Biosciences Life Sciences Solutions, Madison, Wis; (contract assay service)
Put plainly: PI3K gamma inhibition IC50 (Thermo Fisher). The format is biochemical. The note with it: 10-point curve.
Description: as §2, §3

[3] abbreviates: 10-point curve, read-out: SYK IC50.

T2 sequence (P42336 whole entry): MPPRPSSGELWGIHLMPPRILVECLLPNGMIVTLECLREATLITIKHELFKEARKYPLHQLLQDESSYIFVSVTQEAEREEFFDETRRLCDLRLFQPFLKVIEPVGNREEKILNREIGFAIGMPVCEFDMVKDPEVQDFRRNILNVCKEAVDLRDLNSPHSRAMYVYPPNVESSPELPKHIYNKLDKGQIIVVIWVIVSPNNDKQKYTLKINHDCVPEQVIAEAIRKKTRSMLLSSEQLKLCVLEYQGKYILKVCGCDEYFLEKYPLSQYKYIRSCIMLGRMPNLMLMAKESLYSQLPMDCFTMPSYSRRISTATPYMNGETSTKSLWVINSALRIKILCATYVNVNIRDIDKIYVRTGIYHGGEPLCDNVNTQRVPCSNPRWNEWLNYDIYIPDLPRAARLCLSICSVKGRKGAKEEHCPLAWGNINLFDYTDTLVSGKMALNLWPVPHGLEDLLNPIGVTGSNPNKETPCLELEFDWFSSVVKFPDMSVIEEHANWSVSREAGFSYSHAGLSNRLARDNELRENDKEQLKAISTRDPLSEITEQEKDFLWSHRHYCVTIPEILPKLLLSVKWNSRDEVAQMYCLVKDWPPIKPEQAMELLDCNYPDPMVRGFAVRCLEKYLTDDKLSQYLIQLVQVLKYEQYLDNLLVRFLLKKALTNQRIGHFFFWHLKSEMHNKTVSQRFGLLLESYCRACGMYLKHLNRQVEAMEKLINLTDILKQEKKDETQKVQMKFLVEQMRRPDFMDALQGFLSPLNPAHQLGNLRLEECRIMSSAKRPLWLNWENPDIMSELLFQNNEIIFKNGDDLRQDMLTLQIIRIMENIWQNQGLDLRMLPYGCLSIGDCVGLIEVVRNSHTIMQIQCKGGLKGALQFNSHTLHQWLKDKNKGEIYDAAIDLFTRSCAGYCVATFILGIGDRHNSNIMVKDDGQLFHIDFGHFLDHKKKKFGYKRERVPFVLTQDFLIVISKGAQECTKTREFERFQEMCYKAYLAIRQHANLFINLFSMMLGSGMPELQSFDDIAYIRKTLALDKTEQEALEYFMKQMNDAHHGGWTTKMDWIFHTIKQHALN
T2 sequence (P27986 whole entry partner): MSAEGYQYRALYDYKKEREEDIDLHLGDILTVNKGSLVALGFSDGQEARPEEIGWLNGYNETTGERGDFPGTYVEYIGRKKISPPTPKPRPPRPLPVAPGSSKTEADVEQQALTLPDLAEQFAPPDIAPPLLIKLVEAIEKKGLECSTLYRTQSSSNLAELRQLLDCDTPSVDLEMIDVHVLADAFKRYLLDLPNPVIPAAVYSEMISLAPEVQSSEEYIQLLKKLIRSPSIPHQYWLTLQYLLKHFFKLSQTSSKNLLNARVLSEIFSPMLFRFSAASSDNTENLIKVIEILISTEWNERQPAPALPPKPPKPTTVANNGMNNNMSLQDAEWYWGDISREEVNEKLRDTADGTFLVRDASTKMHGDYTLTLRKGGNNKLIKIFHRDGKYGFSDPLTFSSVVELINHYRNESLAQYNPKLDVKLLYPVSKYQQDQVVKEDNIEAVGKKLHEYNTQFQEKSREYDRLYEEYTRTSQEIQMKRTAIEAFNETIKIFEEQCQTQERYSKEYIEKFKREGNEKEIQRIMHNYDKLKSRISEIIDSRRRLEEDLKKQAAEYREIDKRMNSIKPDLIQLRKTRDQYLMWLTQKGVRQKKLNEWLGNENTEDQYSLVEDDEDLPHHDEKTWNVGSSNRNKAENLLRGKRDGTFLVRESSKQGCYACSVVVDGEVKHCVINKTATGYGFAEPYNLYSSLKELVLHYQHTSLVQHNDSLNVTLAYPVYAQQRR
T5 sequence (P48736 whole entry): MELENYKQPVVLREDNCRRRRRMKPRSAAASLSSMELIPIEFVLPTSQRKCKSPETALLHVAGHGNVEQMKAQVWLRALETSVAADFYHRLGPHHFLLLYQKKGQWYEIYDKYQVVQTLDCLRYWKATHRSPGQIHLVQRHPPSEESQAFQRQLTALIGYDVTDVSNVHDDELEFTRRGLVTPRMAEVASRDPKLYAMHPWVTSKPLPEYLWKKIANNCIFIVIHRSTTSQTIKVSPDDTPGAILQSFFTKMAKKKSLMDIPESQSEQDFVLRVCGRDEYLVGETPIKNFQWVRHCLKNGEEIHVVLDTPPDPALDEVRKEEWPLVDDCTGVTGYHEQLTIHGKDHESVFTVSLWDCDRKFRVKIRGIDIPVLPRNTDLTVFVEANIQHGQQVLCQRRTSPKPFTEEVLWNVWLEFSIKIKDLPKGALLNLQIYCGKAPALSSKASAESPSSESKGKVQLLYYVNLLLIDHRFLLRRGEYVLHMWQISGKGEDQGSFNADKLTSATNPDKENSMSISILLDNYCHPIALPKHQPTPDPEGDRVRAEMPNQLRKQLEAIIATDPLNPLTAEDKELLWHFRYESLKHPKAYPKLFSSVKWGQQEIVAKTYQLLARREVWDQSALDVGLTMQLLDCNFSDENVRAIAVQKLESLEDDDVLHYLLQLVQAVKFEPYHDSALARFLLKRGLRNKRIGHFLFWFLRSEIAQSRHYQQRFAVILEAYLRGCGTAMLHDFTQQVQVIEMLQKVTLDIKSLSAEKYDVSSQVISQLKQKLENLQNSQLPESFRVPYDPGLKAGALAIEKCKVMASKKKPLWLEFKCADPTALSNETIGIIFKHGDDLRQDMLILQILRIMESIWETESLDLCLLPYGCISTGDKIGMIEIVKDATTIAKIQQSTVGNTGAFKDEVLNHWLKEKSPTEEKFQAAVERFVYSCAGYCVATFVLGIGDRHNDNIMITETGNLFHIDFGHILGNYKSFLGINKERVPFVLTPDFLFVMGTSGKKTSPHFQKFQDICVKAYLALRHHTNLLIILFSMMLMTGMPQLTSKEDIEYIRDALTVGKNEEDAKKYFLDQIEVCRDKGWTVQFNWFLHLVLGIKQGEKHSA

As to `COc1ccc(-c2cc3nccn3c(Nc3ncccc3C(N)=O)n2)cc1OC` [Bay 61-3606, Bay-61-3606, reference compound], in assay [1] (500 nM), the “Arg mRNA expression relative to control” value is listed as 0.35, the “Fizz1 mRNA expression relative to control” value was determined as 0.05, the “Mgl mRNA expression relative to control” value amounted to 0.33 and the “Mmr mRNA expression relative to control” value was 0.12. The “Ym1 mRNA expression relative to control” value in assay [1] (500 nM) was 0.07. In assay [1] (1 μM), the “Arg mRNA expression relative to control” value is reported as 0.33, the “Fizz1 mRNA expression relative to control” value came to 0.005, the “Mgl mRNA expression relative to control” value is on record as 0.34 and the “Mmr mRNA expression relative to control” value is reported as 0.12. Moreover, the “Ym1 mRNA expression relative to control” value in assay [1] (1 μM) was 0.07. In assay [1] (5 μM), the “Arg mRNA expression relative to control” value was found to be 0.06, the “Fizz1 mRNA expression relative to control” value is 0.0013, the “Mgl mRNA expression relative to control” value amounted to 0.36 and the “Mmr mRNA expression relative to control” value is 0.15. Besides, the “Ym1 mRNA expression relative to control” value in assay [1] (5 μM) is listed as 0.04. In assay [2] (500 nM), the “Il1 mRNA expression relative to control” value worked out at 0.66, the “Il6 mRNA expression relative to control” value is listed as 0.79 and the “Tnfa mRNA expression relative to control” value is recorded as 0.88. Also, in assay [2] (1 μM), the “Il1 mRNA expression relative to control” value was 0.22, the “Il6 mRNA expression relative to control” value is given as 0.31 and the “Tnfa mRNA expression relative to control” value is 0.69. In addition, in assay [2] (5 μM), the “Il1 mRNA expression relative to control” value was 0.11, the “Il6 mRNA expression relative to control” value was determined as 1.63 and the “Tnfa mRNA expression relative to control” value worked out at 2.25.

For `O=c1cc(N2CCOCC2)oc2c(-c3ccc4c(c3)OCCO4)csc12` [Compound 0], the concentration for half-maximal inhibition (IC50) at SYK (note to Table 5, read-out: SYK inhibition IC50) is > 50 µM.

Take `Cc1nn(-c2ccnc(Nc3ccc(-c4csc5c(=O)cc(N6CCNCC6)oc45)cc3)n2)cc1CN1CC(O)C1` [Compound 2, 3-[p-(4-{4-[(3-Hydroxy-1-azetidinyl)methyl]-3-methyl-1H-pyrazol-1-yl}-2-pyrimidinylamino)phenyl]-5-(1-piperazinyl)-4-oxa-1-thia-7-indenone dihydrochloride]: the IC50 was 1 to 5 µM at PI3K α; < 0.1 µM on SYK (setting [3]); 5 to 50 µM at BRD4-1; > 50 µM at BRD4-2; > 50 µM at PI3K γ.

As to `Cc1nn(-c2ccnc(Nc3ccc(-c4csc5c(=O)cc(N6CCNCC6)oc45)cc3)n2)cc1CN1CCC1` [Compound 4, 3-[p-(4-{4-[(1-Azetidinyl)methyl]-3-methyl-1H-pyrazol-1-yl}-2-pyrimidinylamino)phenyl]-5-(1-piperazinyl)-4-oxa-1-thia-7-indenone dihydrochloride], the IC50 on PI3K α was 5 to 50 µM; at SYK (setting [3]), 0.1 to 1 µM; at BRD4-1 it was 5 to 50 µM; at BRD4-2 it was > 50 µM; against PI3K γ it was > 50 µM.

In the case of `COc1cc(Nc2ncc(F)c(Nc3ccc4c(n3)N(COP(=O)(O)O)C(=O)C(C)(C)O4)n2)cc(OC)c1OC` [Compound R788, fostamatinib, reference compound], in assay [1] (500 nM), the “Arg relative mRNA expression (M2 gene)” value is 0.352 ± 0.07, the “Il10 relative mRNA expression (M2 gene)” value is on record as 0.35 ± 0.026, the “Mmr relative mRNA expression (M2 gene)” value is reported as 0.31 ± 031 and the “Tgfb relative mRNA expression (M2 gene)” value is 0.771 ± .007. Moreover, in assay [1] (500 nM), the “Vegf relative mRNA expression (M2 gene)” value is listed as 0.58 ± 0.065. Further, in assay [2] (500 nM), the “Ifng relative mRNA expression (M1 gene)” value is 3.2 ± 0.09, the “Il1 relative mRNA expression (M1 gene)” value turned out to be 1.4 ± 0.003, the “Il6 relative mRNA expression (M1 gene)” value was found to be 1.8 ± 0.05 and the “Nos2 relative mRNA expression (M1 gene)” value is listed as 0.6 ± 0.014. In assay [2] (500 nM), the “Tnfa relative mRNA expression (M1 gene)” value is on record as 1.4 ± 0.13.

Consider `C[C@H](NC(=O)c1c(N)nn2cccnc12)c1cc2cccc(C#Cc3cnn(C)c3)c2c(=O)n1-c1ccccc1` [IPI549, reference compound], for which, in assay [1] (500 nM), the “Arg relative mRNA expression (M2 gene)” value came out at 0.62 ± 0.08, the “Il10 relative mRNA expression (M2 gene)” value is recorded as 0.081 ± .002, the “Mmr relative mRNA expression (M2 gene)” value came to 0.324 ± 0.049 and the “Tgfb relative mRNA expression (M2 gene)” value is listed as 0.568 ± 0.05. Moreover, in assay [1] (500 nM), the “Vegf relative mRNA expression (M2 gene)” value is on record as 0.374 ± .132. In assay [2] (500 nM), the “Ifng relative mRNA expression (M1 gene)” value is listed as 1.9 ± 0.249, the “Il1 relative mRNA expression (M1 gene)” value was 3.9 ± 0.003, the “Il6 relative mRNA expression (M1 gene)” value was 1.8 ± 0.05 and the “Nos2 relative mRNA expression (M1 gene)” value is 0.83 ± .04. In addition, in assay [2] (500 nM), the “Tnfa relative mRNA expression (M1 gene)” value was 0.984 ± .16.
